The source of these data is ChEMBL document CHEMBL1144340, “QSAR for phospholipase A2 inhibitions by 1-acyloxy-3-N-n-octylcarbamyl-benzenes” (Bioorg Med Chem Lett, 2005).

Structures are written as SMILES.

The experiment deals with T1, Acidic phospholipase A2 CM-I (Naja mossambica, UniProt P00602).
T1 sequence (P00602 whole entry): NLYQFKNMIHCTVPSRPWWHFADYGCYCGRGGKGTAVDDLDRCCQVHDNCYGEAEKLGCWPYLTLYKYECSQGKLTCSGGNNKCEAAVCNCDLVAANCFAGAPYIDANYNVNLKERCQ
Briefly: Inhibitory activity against phospholipase A2.
Regarding `CCCCCCCCNC(=O)Oc1cccc(OC(=O)C(C)(C)C)c1`, the inhibitory constant (Ki) (as a rule, the equilibrium dissociation constant of an inhibitor or competing ligand from its target) is 55 µM.
In the case of `CCCCCCCCNC(=O)Oc1cccc(OC(=O)C(Cl)(Cl)Cl)c1` it was 120 µM; in that of `CCCCCCCCCCCCCCCC(=O)Oc1cccc(OC(=O)NCCCCCCCC)c1`, 9.6 µM; in that of `CCCCCCCCNC(=O)Oc1cccc(OC(=O)CCCCCCC)c1`, 27 µM.
To `CCCCCCCCNC(=O)Oc1cccc(OC(C)=O)c1` belongs 98 µM; to `CCCCCCCCNC(=O)Oc1cccc(OC(=O)CCCC)c1`, 75 µM.
In the case of `CCCCCCCCNC(=O)Oc1cccc(OC(=O)c2ccccc2)c1` it was 95 µM.
For the molecule `CCCCCCCCNC(=O)Oc1cccc(OC(=O)Cc2ccccc2)c1`, the Ki was 73 µM. This Ki and that of the molecule before are within 1.5-fold of each other.
To `CCCCCCCCNC(=O)Oc1cccc(OC(=O)C(c2ccccc2)(c2ccccc2)c2ccccc2)c1` belongs 38 µM.
